Series [1] relates to A2780 ovarian carcinoma cells. The series is described as follows: MTT cytotoxicity assay, A2780. To be noted: read-out: cytotoxicity IC50; A2780, ovarian; MTT, 48 h treatment; spread in brackets. From the text: (a) Dulbecco's Modified Eagle Medium (DMEM), Dulbecco's phosphate buffered saline (DPBS), fetal bovine serum (FBS) and 0.25% trypsin/EDTA solutions were purchased from Cellgro (Manassas, Va.). Penicillin-streptomycin solutions were purchased from Mediatech (Manassas, Va.). (b) HeLa (CCL-2TM) cells, A549, A2870, A2870/CP70, MCF-7, PC-3, and MRC-5 cells were purchased from American Type Culture Collection (ATCC, Manassas, Va., USA). (c) HCT116 cells were kindly donated by Laura Trudel (MIT). HeLa, A549, MCF-7, and MRC-5 cells were cultured using DMEM supplemented with 10% FBS and 1% penicillin-streptomycin. A2870, A2870/CP70, and PC-3 cells were cultured in RPMI supplemented with 10% FBS and 1% penicillin-streptomycin. HCT116 cells were cultured in McCoy's supplemented with 10% FBS and 1% penicillin-streptomycin. All cell-culture experiments were performed in the aforementioned media in an incubator operating at 37° C. and in the presence of a humidified atmosphere containing 5.0% CO2. Cells were harvested using a 0.25% trypsin/EDTA solution.
The cytotoxicity of the compounds was assessed by means of the MTT assay (MTT=3-(4,5-dimethyl-2-thiazolyl)-2,5-diphenyl-2H-tetrazolium bromide). Typically, on day one, ˜1×10^3 cells were seeded into 96-well plates in 100 μL media per well. […] The optical density for each well at 550 nm was measured with a microplate reader.
A general note: Tetrazolium dyes change colour on reduction, which living cells bring about.

For a further series, the system named is A549 cells. The series is described as follows: Immunoblotting of DNA damage and apoptosis biomarkers. The class given is cell-based. To be noted: 0.75-6 μM, 48 h. On the procedure: To gain further insight into the cellular response evoked by Pt(IV)(α-TOS)(OEt) treatment, biomarkers related to DNA damage and apoptosis were monitored. […] Whole cell lysates were resolved by SDS-PAGE and analyzed by immunoblotting against γH2AX, p53, and cleaved caspase-7, cleaved caspase-9, cleaved PARP-1, and β-actin as control.
A549 cells (5×10^5 cells) were incubated with test compound for 48 h at 37° C. Cells were washed with PBS, scraped into SDS-PAGE loading buffer (64 mM Tris-HCl (pH6.8)/9.6% glycerol/2% SDS/5% β-mercaptoethanol/0.01% Bromophenol Blue) and incubated at 95° C. for 10 min. Whole cell lysates were resolved by 4-20% sodium dodecylsulphate polyacylamide gel electrophoresis (SDS-PAGE; 200 V for 1 h) followed by electro transfer to polyvinylidene difluoride membrane, PVDF (350 mA for 1 h). Membranes were blocked in 5% (w/v) non-fat milk in PBST (PBS/0.1% Tween 20) and incubated with the appropriate primary antibodies (Cell Signalling Technology and Santa Cruz). After incubation with horseradish peroxidase-conjugated secondary antibodies (Cell Signalling Technology), immune complexes were detected with the ECL detection reagent (BioRad) and analysed using an Alpha Innotech ChemiImager™ 5500 fitted with a chemiluminescence filter.
(Immunoblotting shows a protein as a band on a membrane.)

Series [2] relates to A2780 ovarian cancer cells. The series is described as follows: PI-annexin-V dual staining apoptosis assay. The class given is cell-based. To be noted: 4 μM for 48 h.

Broadly, the IC50 is the concentration that gives 50% inhibition.

In the case of `CC[O][Pt]([NH2])([NH2])([Cl])([Cl])[O]C(=O)CCC(=O)Oc1c(C)c(C)c2c(c1C)CCC(C)(CCCC(C)CCCC(C)CCCC(C)C)O2` (stereo not drawn) [Pt(IV)(α-TOS)(OEt)], the IC50 in series [1] amounted to 20 nM. In the series with A549 cells, the “cleaved PARP-1 expression” value is given as “increased”, the “cleaved caspase-9 expression” value was “increased”, the p53 expression entry was “increased in a dose-dependent manner” and the γH2AX expression result is reported as “an increase in γH2AX expression”. The “cell population with characteristics of early apoptosis” value in series [2] is 28%.

Source of the values: patent US9133225B2, “Dual targeting anticancer agents” (priority 2013, dated 2015).
